According to patent US20240391931A1 (Bristol-Myers Squibb Company, priority 2021, published 2024):

Legend:
Assay type in all cases: biochemical
HER2 WT = biological target: T1, HER2 WT (Homo sapiens, UniProt P04626); experiment: Enzymatic assay HER2 WT (method a); conditions: [HER2 WT]=12.5 nM, [ATP]=25 μM, [Peptide 22]=1 μM
T1 construct: purchased ProQinase, Freiburg, Germany ERBB2 0108-0000-1
Protocol: (§1) A 2× stock solution of HER2 WT (ERBB2 0108-0000-1; ProQinase, Freiburg, Germany) corresponding to method a, was prepared as described below. Alternatively, a 2× stock solution of HER2YVMA (custom purification; Viva biotech, Shanghai, China) corresponding to method b, was prepared as described below. For method c, a 2× stock of EGFR (ERBB1 PR7295B, Thermo Fisher, Carlsbad, CA) was prepared as described below. All 2× solutions were prepared in buffer containing 50 mM HEPES, pH 7.5, 10 mM MnCl2, MgCl2, 0.005% Tween 20, 1 mM TCEP. 25 ul of 2× enzyme solution was added to a Seahorse low volume 384-well polypropylene assay plate (201288-100, Seahorse Bioscience, Chicopee, MA) containing 1 μl of compound serially diluted in 50% DMSO. To initiate the reaction, 25 μl of solution containing 2× final concentration of ATP and ProfilerPro Peptide 22 (760366, Perkin Elmer Hopkinton, MA) was added to each well. The reactions were separated on an LC3000 (Caliper Life Sciences) or a LabChip EZReader (Perkin Elmer) in kinetic mode.
(§2) At the conclusion of each assay, the data were exported from the instrument as a .rda file (LC3000) and processed in proprietary software, EZReviewer, which determines the percent of substrate converted to product within a given cycle as (P/P+S)*100 by measuring the amplitude of substrate and product peaks. Cycle time varied with amount of compounds tested between 8 and 12 cycles. Initial velocity (0-3600 s) from each reaction was determined from the slope of a plot of percent conversion at each cycle versus time (seconds). Percent inhibition was determined by dividing the slope of each reaction by the uninhibited control using 100*(1-(x/uninhibited control)). IC50 estimates were obtained by plotting the concentration of inhibitor versus percent inhibition in GraphPad Prism (GraphPad Software, San Diego, CA) using log[inhibitor] versus Response (Variable Slope Model); Y=Min+((Max-Min)/(1+((IC50/x)^Hillslope)))
(§3) • a) [HER2 WT]=12.5 nM, [ATP]=25 μM, [Peptide 22]=1 μM (ATP KMapp˜25 μM) • b) [HER2YVMA]=5 nM, [ATP]=25 μM, [Peptide 22]=1 μM (ATP KMapp˜15 μM) • c) [EGFR WT]=2 nM, [ATP]=1 mM, [Peptide 22]=1 μM (ATP KMapp˜25 μM)

HER2YVMA = HER2YVMA (Homo sapiens, UniProt P04626, INS775YVMA); experiment: Enzymatic assay HER2YVMA (method b); parameters: purchased Viva biotech, Shanghai, China custom purification; conditions: [HER2YVMA]=5 nM, [ATP]=25 μM, [Peptide 22]=1 μM
Chain of HER2YVMA (P04626 with tags, fused parts or gaps INS775YVMA): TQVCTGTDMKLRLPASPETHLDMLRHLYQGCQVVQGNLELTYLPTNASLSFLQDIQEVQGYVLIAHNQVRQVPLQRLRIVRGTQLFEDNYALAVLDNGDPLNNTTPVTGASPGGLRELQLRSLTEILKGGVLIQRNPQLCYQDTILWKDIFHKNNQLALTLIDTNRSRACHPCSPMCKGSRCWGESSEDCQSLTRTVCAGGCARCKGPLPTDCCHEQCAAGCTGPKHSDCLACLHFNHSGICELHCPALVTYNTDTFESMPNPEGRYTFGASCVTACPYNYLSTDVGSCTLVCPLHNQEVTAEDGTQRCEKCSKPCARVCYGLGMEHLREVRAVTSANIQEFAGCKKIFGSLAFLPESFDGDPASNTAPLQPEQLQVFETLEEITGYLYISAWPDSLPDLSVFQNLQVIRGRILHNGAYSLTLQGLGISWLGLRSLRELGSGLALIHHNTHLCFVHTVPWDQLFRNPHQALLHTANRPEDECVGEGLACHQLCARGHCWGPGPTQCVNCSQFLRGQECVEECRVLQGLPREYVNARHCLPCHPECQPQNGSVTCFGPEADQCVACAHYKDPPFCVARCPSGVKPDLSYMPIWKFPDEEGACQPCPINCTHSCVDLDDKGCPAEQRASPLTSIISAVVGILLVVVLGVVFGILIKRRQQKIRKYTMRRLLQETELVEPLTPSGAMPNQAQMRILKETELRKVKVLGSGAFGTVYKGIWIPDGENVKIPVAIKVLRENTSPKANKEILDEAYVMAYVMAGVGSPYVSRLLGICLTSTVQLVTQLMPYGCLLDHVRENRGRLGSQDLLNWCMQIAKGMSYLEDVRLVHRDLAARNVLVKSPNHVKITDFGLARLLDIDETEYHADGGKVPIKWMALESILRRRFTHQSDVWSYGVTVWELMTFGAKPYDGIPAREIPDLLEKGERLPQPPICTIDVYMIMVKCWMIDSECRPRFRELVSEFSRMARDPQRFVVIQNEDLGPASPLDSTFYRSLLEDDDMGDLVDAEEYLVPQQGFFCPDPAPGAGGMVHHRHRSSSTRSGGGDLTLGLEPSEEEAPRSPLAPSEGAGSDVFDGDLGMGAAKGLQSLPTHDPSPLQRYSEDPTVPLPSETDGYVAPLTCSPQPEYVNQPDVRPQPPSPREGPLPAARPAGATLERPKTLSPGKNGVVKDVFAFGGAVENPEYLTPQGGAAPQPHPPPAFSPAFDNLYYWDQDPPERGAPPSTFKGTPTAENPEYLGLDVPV
Protocol: as §1, §2, §3

EGFR WT = biological target: T2, EGFR WT (Homo sapiens, UniProt P00533); experiment: Enzymatic assay EGFR WT (method c); conditions: [EGFR WT]=2 nM, [ATP]=1 mM, [Peptide 22]=1 μM
T2 construct: purchased Thermo Fisher, Carlsbad, CA ERBB1 PR7295B
T2 sequence (P00533 25-1210): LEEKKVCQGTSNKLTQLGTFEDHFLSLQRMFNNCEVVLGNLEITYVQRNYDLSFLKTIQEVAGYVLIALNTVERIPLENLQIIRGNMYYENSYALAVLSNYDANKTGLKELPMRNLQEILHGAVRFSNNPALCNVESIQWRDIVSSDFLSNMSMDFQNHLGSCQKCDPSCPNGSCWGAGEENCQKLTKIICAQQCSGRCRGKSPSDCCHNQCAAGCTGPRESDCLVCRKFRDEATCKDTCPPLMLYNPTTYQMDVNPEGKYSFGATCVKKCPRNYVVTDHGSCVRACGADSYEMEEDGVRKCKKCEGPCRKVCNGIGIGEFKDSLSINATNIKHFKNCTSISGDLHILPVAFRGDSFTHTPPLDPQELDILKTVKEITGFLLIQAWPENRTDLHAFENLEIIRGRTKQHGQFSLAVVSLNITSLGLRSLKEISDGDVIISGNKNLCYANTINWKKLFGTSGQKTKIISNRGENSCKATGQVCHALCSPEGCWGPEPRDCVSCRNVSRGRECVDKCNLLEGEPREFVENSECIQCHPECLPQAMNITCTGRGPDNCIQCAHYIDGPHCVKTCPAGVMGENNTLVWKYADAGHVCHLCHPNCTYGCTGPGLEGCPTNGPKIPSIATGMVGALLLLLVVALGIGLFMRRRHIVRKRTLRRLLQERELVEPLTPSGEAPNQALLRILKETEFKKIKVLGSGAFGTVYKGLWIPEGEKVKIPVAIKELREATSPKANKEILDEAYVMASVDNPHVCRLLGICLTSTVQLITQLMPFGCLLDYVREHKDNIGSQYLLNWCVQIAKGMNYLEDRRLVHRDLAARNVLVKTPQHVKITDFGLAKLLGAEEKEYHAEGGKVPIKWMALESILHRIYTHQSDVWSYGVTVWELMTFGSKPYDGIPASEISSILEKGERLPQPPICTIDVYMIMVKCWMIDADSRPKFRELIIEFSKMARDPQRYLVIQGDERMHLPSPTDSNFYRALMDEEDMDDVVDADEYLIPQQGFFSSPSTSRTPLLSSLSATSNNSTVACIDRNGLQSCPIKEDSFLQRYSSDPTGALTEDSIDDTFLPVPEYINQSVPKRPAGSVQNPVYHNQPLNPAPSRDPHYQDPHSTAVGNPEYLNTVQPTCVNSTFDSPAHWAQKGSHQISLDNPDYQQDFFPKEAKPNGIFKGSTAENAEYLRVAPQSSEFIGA
Protocol: as §1, §2, §3

T1 sequence (P04626 23-1255): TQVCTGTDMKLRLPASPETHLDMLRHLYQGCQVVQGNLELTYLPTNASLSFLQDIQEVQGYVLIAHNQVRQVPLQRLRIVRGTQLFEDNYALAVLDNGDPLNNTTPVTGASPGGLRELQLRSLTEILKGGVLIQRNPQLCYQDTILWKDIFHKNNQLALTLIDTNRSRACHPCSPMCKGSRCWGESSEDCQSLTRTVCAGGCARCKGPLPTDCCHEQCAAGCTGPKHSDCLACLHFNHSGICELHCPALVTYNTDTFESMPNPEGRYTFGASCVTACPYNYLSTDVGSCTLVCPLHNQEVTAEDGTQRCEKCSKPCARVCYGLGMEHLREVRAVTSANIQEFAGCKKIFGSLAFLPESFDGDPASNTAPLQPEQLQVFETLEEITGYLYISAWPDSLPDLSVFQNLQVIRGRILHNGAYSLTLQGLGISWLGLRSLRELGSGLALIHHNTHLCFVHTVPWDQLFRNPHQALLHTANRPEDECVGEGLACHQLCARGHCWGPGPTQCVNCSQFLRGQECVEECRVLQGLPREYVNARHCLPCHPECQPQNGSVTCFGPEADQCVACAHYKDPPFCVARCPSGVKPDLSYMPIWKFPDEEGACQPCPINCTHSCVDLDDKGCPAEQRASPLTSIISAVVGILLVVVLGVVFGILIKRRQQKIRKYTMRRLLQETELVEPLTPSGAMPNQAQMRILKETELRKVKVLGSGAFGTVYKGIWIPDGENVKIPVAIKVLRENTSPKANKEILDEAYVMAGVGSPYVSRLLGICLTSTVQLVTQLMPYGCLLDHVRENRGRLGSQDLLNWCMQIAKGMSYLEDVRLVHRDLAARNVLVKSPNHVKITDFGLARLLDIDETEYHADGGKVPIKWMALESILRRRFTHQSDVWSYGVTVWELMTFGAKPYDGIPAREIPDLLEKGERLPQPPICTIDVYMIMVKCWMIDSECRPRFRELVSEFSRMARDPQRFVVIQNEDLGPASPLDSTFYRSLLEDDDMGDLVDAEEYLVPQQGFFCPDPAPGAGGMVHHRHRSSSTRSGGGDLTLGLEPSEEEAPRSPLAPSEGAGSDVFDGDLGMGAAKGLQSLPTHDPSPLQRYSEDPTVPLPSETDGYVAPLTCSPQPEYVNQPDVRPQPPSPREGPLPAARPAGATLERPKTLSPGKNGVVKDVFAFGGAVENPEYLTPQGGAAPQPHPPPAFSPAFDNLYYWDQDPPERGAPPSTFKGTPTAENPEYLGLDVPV

| IC50 (HER2 WT) [nM] | IC50 (HER2YVMA) [nM] | IC50 (EGFR WT) [nM] | SMILES |
| --- | --- | --- | --- |
| < 100 | < 100 | > 10000 | O=C(/C=C/CN1CCOCC1)N1CCc2c(sc3ncnc(Nc4ccc(Oc5ccc6ncnn6c5)c(Cl)c4)c23)C1 [Compound 18] |
| < 100 | < 100 | 1000 to 10000 | Cc1cc(Nc2ncnc3sc4c(c23)CCN(C(=O)/C=C/CN(C)C)C4)ccc1Oc1ccc2scnc2c1 [Compound 107, (E)-1-(4-((4-(benzo[d]thiazol-5-yloxy)-3-methylphenyl)amino)-5,8-dihydropyrido[4′,3′:4,5]thieno[2,3-d]pyrimidin-7(6H)-yl)-4-(dimethylamino)but-2-en-1-one] |
| < 100 | < 100 | > 10000 | Cc1ccc(Oc2ccc(Nc3ncnc4sc5c(c34)CN(C(=O)/C=C/CN(C)C)CC5)cc2C)cn1 [Compound 108, (E)-4-(Dimethylamino)-1-(4-((3-methyl-4-((6-methylpyridin-3-yl)oxy)phenyl)amino)-7,8-dihydropyrido[3′,4′:4,5]thieno[2,3-d]pyrimidin-6(5H)-yl)but-2-en-1-one] |
| < 100 | < 100 | > 10000 | Cc1cc(Nc2ncnc3sc4c(c23)CN(C(=O)/C=C/CN(C)C)C4)ccc1Oc1ccc2ncnn2c1 [Compound 111, (E)-1-(4-((4-([1,2,4]Triazolo[1,5-a]pyridin-6-yloxy)-3-methylphenyl)amino)-5H-pyrrolo[3′,4′:4,5]thieno[2,3-d]pyrimidin-6(7H)-yl)-4-(dimethylamino)but-2-en-1-one] |
| < 100 | < 100 | > 10000 | Cc1ccc(Oc2ccc(Nc3ncnc4sc5c(c34)CCN(C(=O)/C=C/CN3CCC[C@H](n4cccn4)C3)C5)cc2C)cn1 [Compound 112] |
| < 100 | < 100 | > 10000 | Cc1ccc(Oc2ccc(Nc3ncnc4sc5c(c34)CCN(C(=O)/C=C/CN3CCCC(c4nccs4)C3)C5)cc2C)cn1 (stereo not drawn) [Compound 113] |
| < 100 | < 100 | > 10000 | Cc1ccc(Oc2ccc(Nc3ncnc4sc5c(c34)CCN(C(=O)/C=C/CN3CCC(O)C(C)(C)C3)C5)cc2C)cn1 (stereo not drawn) [Compound 114] |
| < 100 | < 100 | > 10000 | Cc1ccc(Oc2ccc(Nc3ncnc4sc5c(c34)CCN(C(=O)/C=C/CN3CCCC34CCC4)C5)cc2C)cn1 [Compound 115] |
| < 100 | < 100 | > 10000 | Cc1ccc(Oc2ccc(Nc3ncnc4sc5c(c34)CCN(C(=O)/C=C/CN3CC(C)OC(C)C3C)C5)cc2C)cn1 (stereo not drawn) [Compound 117] |
| < 100 | < 100 | > 10000 | Cc1ccc(Oc2ccc(Nc3ncnc4sc5c(c34)CCN(C(=O)/C=C/CN3CC4CC4(CO)C3)C5)cc2C)cn1 (stereo not drawn) [Compound 118] |
| < 100 | < 100 | > 10000 | Cc1ccc(Oc2ccc(Nc3ncnc4sc5c(c34)CCN(C(=O)/C=C/CN3CCCCC3(C)CO)C5)cc2C)cn1 (stereo not drawn) [Compound 119] |
| < 100 | < 100 | > 10000 | Cc1ccc(Oc2ccc(Nc3ncnc4sc5c(c34)CCN(C(=O)/C=C/CN3C[C@H]4C[C@@H]3CC4C#N)C5)cc2C)cn1 (stereo partly drawn) [Compound 120] |
| 1000 to 10000 | 100 to 1000 | > 10000 | Cc1ccc(Oc2ccc(Nc3ncnc4sc5c(c34)CCN(C(=O)/C=C/CN3CC(C)(C)OC(C)(C)C3)C5)cc2C)cn1 [Compound 121] |
| < 100 | < 100 | > 10000 | CC[C@H](NC/C=C/C(=O)N1CCc2c(sc3ncnc(Nc4ccc(Oc5ccc(C)nc5)c(C)c4)c23)C1)C(F)(F)F [Compound 122] |
| < 100 | < 100 | > 10000 | Cc1ccc(Oc2ccc(Nc3ncnc4sc5c(c34)CCN(C(=O)/C=C/CN3CC4(CCCC4)C3)C5)cc2C)cn1 [Compound 123] |
| < 100 | < 100 | > 10000 | Cc1ccc(Oc2ccc(Nc3ncnc4sc5c(c34)CCN(C(=O)/C=C/CN3CC[C@H](F)C3)C5)cc2C)cn1 [Compound 124] |
| < 100 | < 100 | > 10000 | Cc1cc(Nc2ncnc3sc4c(c23)CN(C(=O)/C=C/CN(C)C)C4)ccc1Oc1ccn2ncnc2c1 [Compound 130, (E)-1-(4-((4-([1,2,4]Triazolo[1,5-a]pyridin-7-yloxy)-3-methylphenyl)amino)-5H-pyrrolo[3′,4′:4,5]thieno[2,3-d]pyrimidin-6(7H)-yl)-4-(dimethylamino)but-2-en-1-one] |
| < 100 | < 100 | 1000 to 10000 | CCN(CC)C/C=C/C(=O)N1CCc2c(sc3ncnc(Nc4ccc(Oc5ccc(C)nc5)c(C)c4)c23)C1 [Compound 131] |
| < 100 | < 100 | 1000 to 10000 | Cc1ccc(Oc2ccc(Nc3ncnc4sc5c(c34)CCN(C(=O)/C=C/CN3CC[C@@H](CO)C3)C5)cc2C)cn1 [Compound 132] |
| < 100 | < 100 | > 10000 | Cc1ccc(Oc2ccc(Nc3ncnc4sc5c(c34)CCN(C(=O)/C=C/CN3CC[C@H](CO)C3)C5)cc2C)cn1 [Compound 133] |
| < 100 | < 100 | 1000 to 10000 | Cc1ccc(Oc2ccc(Nc3ncnc4sc5c(c34)CCN(C(=O)/C=C/CN3CC(CO)(CO)C3)C5)cc2C)cn1 [Compound 134] |
| < 100 | < 100 | > 10000 | Cc1ccc(Oc2ccc(Nc3ncnc4sc5c(c34)CCN(C(=O)/C=C/CN3CCC(CO)(CO)CC3)C5)cc2C)cn1 [Compound 135] |
| < 100 | < 100 | > 10000 | Cc1ccc(Oc2ccc(Nc3ncnc4sc5c(c34)CCN(C(=O)/C=C/CN3CCO[C@H](CO)C3)C5)cc2C)cn1 [Compound 136] |
| < 100 | < 100 | > 10000 | CCN(CC)C/C=C/C(=O)N1CCc2c(sc3ncnc(Nc4ccc(Oc5ccc(OC)nc5)c(C)c4)c23)C1 [Compound 137] |

| SMILES | IC50 (HER2 WT) [nM] | IC50 (HER2YVMA) [nM] | IC50 (EGFR WT) [nM] |
| --- | --- | --- | --- |
| Cc1cc(Nc2ncnc3sc4c(c23)CCN(C(=O)/C=C/CN(C)C)C4)ccc1Oc1ccc2nccn2c1 [Compound 109, (E)-4-(dimethylamino)-1-(4-((4-(imidazo[1,2-a]pyridin-6-yloxy)-3-methylphenyl)amino)-5,6-dihydropyrido[4′,3′:4,5]thieno[2,3-d]pyrimidin-7(8H)-yl)but-2-en-1-one] | 100 to 1000 | < 100 | > 10000 |
| Cc1cn2ccc(Oc3ccc(Nc4ncnc5sc6c(c45)CCN(C(=O)/C=C/CN(C)C)C6)cc3C)cc2n1 [Compound 110, (E)-4-(dimethylamino)-1-(4-((3-methyl-4-((2-methylimidazo[1,2-a]pyridin-7-yl)oxy)phenyl)amino)-5,8-dihydropyrido[4′,3′:4,5]thieno[2,3-d]pyrimidin-7(6H)-yl)but-2-en-1-one] | 100 to 1000 | < 100 | > 10000 |
| Cc1cc(Nc2ncnc3sc4c(c23)CCN(C(=O)/C=C/CN(C)C)C4)ccc1Oc1ccn2ccnc2c1 [Compound 126, (E)-4-(dimethylamino)-1-(4-((4-(imidazo[1,2-a]pyridin-7-yloxy)-3-methylphenyl)amino)-5,8-dihydropyrido[4′,3′:4,5]thieno[2,3-d]pyrimidin-7(6H)-yl)but-2-en-1-one] | < 100 | < 100 | > 10000 |
| Cc1nc2cc(Oc3ccc(Nc4ncnc5sc6c(c45)CCN(C(=O)/C=C/CN(C)C)C6)cc3C)ccn2n1 [Compound 127, (E)-4-(dimethylamino)-1-(4-((3-methyl-4-((2-methyl-[1,2,4]triazolo[1,5-a]pyridin-7-yl)oxy)phenyl)amino)-5,6-dihydropyrido[4′,3′:4,5]thieno[2,3-d]pyrimidin-7(8H)-yl)but-2-en-1-one] | 100 to 1000 | < 100 | > 10000 |
